Earlier results on two compounds are cited in US20220275055A1, “DRUG TARGET OF IDIOPATHIC PULMONARY FIBROSIS” (National Institute of Biological Sciences, Beijing, priority 2019, published 2022).

For this series the following is noted: idiopathic pulmonary fibrosis (IPF); background statement.

`COC(=O)c1ccc2c(c1)NC(=O)/C2=C(\Nc1ccc(N(C)C(=O)CN2CCN(C)CC2)cc1)c1ccccc1` [nintedanib]: the survival time result is “failed to show significantly increased survival time”.
For `Cc1ccc(=O)n(-c2ccccc2)c1` [pirfenidone], the survival time entry is listed as “failed to show significantly increased survival time”.
